Source: patent US20220275391A1, “METHODS OF USING ALS INHIBITOR HERBICIDES FOR CONTROL OF UNWANTED VEGETATION IN ALS INHIBITOR HERBICIDE TOLERANT BETA VULGARIS PLANTS” (priority 2010, published 2022)

Legend:
Conditions in all cases: BBCH 14
KLARINA = test: Field trial, phytotoxicity scoring on ALS inhibitor sensitive reference variety KLARINA
Source text: (§1) The water quantity applied in the various applications equaled 200 l/ha. At 8, 14, 16, 17, 28, and 31 days (as indicated in the various Tables) after application (DAA) of the respective ALS inhibitor herbicide(s), the damages (phytotoxicity/phyto) on the different sugar beet plants were scored according to the scale from 0% to 100%.
(§2) In this context, “0%” means “no phytotoxicity/phyto” and “100%” means plants were completely killed.

SB574TL based sugar beet = test: Field trial, phytotoxicity scoring on homozygous SB574TL mutant sugar beet; format: in vivo, Beta vulgaris
Source text: Based on SB574TL, F4—F6 seeds conferring the mutant allele of the endogenous ALS gene in the homozygous state were applied for further testing.

BERETTA = test: Field trial, phytotoxicity scoring on ALS inhibitor sensitive reference variety BERETTA; format: in vivo, Beta vulgaris
Source text: as §1, §2

## COC(=O)c1csc(C)c1S(=O)(=O)NC(=O)n1nc(OC)n(C)c1=O [Thiencarbazone-methyl (A2-3), thiencarbazone-methyl]
KLARINA; 15 g/ha, 8 days
  % phyto: 90%
KLARINA; 15 g/ha, 14 days
  % phyto: 97%
KLARINA; 15 g/ha, 28 days
  % phyto: 100%
KLARINA; 30 g/ha, 8 days
  % phyto: 90%
KLARINA; 30 g/ha, 14 days
  % phyto: 97%
KLARINA; 30 g/ha, 28 days
  % phyto: 100%

## CCS(=O)(=O)c1cccnc1S(=O)(=O)NC(=O)Nc1nc(OC)cc(OC)n1 [Rimsulfuron (A1-26), rimsulfuron]
KLARINA; 12.5 g/ha, 8 days
  % phyto: 81%
KLARINA; 12.5 g/ha, 14 days
  % phyto: 85%
KLARINA; 12.5 g/ha, 28 days
  % phyto: 76%

## COc1cc(OC)nc(NC(=O)NS(=O)(=O)c2ncccc2C(=O)N(C)C)n1 [Nicosulfuron (A1-20), nicosulfuron]
KLARINA; 60 g/ha, 8 days
  % phyto: 90%
KLARINA; 60 g/ha, 14 days
  % phyto: 98%
KLARINA; 60 g/ha, 28 days
  % phyto: 100%
SB574TL based sugar beet; 60 g/ha, 8 days
  % phyto: 0%
SB574TL based sugar beet; 60 g/ha, 14 days
  % phyto: 0%
SB574TL based sugar beet; 60 g/ha, 28 days
  % phyto: 0%

## COc1nn(C(=O)[N-]S(=O)(=O)c2ccccc2OC(F)(F)F)c(=O)n1C.[Na+] [Flucarbazone-sodium (A2-1), flucarbazone-sodium]
BERETTA; 40 g/ha, 8 days
  % phyto: 80%
BERETTA; 40 g/ha, 16 days
  % phyto: 89%
BERETTA; 40 g/ha, 38 days
  % phyto: 89%
SB574TL based sugar beet; 40 g/ha, 8 days (Table 3)
  % phyto: 0%
SB574TL based sugar beet; 40 g/ha, 16 days
  % phyto: 0%
SB574TL based sugar beet; 40 g/ha, 38 days
  % phyto: 0%

## CC(C)C1(C)N=C(c2nc3ccccc3cc2C(=O)O)NC1=O (stereo not drawn) [Imazaquin (B1-5), imazaquin]
BERETTA; 100 g/ha, 8 days
  % phyto: 80%
BERETTA; 100 g/ha, 16 days
  % phyto: 98%
BERETTA; 100 g/ha, 38 days
  % phyto: 100%
SB574TL based sugar beet; 100 g/ha, 8 days (Table 3)
  % phyto: 0%
SB574TL based sugar beet; 100 g/ha, 16 days
  % phyto: 0%
SB574TL based sugar beet; 100 g/ha, 38 days
  % phyto: 0%

## COC(=O)c1ccccc1S(=O)(=O)NC(=O)Nc1nc(C)cc(C)n1 [Sulfometuron-methyl (A1-27), sulfometuron-methyl]
BERETTA; 60 g/ha, 8 days
  % phyto: 80%
BERETTA; 60 g/ha, 16 days
  % phyto: 97%
BERETTA; 60 g/ha, 38 days
  % phyto: 100%
SB574TL based sugar beet; 60 g/ha, 8 days (Table 3)
  % phyto: 0%
SB574TL based sugar beet; 60 g/ha, 16 days
  % phyto: 3%
SB574TL based sugar beet; 60 g/ha, 38 days
  % phyto: 0%

## COc1nc(C)nc(NC(=O)NS(=O)(=O)c2ccccc2OCCCl)n1 [Triasulfuron (A1-30), triasulfuron]
BERETTA; 30 g/ha, 8 days
  % phyto: 80%
BERETTA; 30 g/ha, 16 days
  % phyto: 98%
BERETTA; 30 g/ha, 38 days
  % phyto: 100%
SB574TL based sugar beet; 30 g/ha, 8 days (Table 3)
  % phyto: 0%
SB574TL based sugar beet; 30 g/ha, 16 days
  % phyto: 0%
SB574TL based sugar beet; 30 g/ha, 38 days
  % phyto: 0%

## COCc1cnc(C2=NC(C)(C(C)C)C(=O)N2)c(C(=O)O)c1 (stereo not drawn) [Imazamox (B1-2), imazamox]
KLARINA; 40 g/ha, 8 days
  % phyto: 90%
KLARINA; 40 g/ha, 14 days
  % phyto: 97%
KLARINA; 40 g/ha, 28 days
  % phyto: 99%
SB574TL based sugar beet; 40 g/ha, 8 days
  % phyto: 0%
SB574TL based sugar beet; 40 g/ha, 14 days
  % phyto: 0%
SB574TL based sugar beet; 40 g/ha, 28 days
  % phyto: 0%

## COC(=O)c1ccccc1S(=O)(=O)NC(=O)N(C)c1nc(C)nc(OC)n1 [Tribenuron-methyl (A1-31), tribenuron-methyl]
KLARINA; 30 g/ha, 8 days
  % phyto: 91%
KLARINA; 30 g/ha, 14 days
  % phyto: 98%
KLARINA; 30 g/ha, 28 days
  % phyto: 100%

## COC(=O)c1ccc(CNS(C)(=O)=O)cc1S(=O)(=O)NC(=O)Nc1nc(OC)cc(OC)n1 [Mesosulfuron-methyl (A1-17), mesosulfuron-methyl]
KLARINA; 60 g/ha, 8 days
  % phyto: 90%
KLARINA; 60 g/ha, 14 days
  % phyto: 97%
KLARINA; 60 g/ha, 28 days
  % phyto: 99%
